{"source": "patent US9364479B2", "about": "“Use of a receptor-type kinase modulator for treating polycystic kidney disease” (SYMPHONY EVOLUTION, INC., priority 2010, dated 2016)", "key": {"c-Kit": {"target": "c-Kit (Homo sapiens, UniProt P10721)", "sequence (P10721 544-976)": "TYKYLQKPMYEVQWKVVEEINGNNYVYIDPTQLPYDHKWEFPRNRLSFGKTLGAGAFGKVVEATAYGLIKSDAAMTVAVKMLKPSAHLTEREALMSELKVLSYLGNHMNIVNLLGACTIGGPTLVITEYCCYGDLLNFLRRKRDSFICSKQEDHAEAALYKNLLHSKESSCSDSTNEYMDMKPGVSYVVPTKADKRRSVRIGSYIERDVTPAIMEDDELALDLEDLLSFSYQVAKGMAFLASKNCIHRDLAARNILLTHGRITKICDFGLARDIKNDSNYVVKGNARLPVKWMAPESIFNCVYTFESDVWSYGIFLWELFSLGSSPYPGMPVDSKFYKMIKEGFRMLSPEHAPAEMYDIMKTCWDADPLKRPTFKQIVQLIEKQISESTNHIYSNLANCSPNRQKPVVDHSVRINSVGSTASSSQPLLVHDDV", "assay": "AlphaScreen kinase assay", "type": "biochemical", "parameters": "Human, T544-; MgCl2, 3 mM MnCl2, 1 mM; V976, N-GST,; GST (N); purchased ProQinase", "procedure": "An AlphaScreen tyrosine kinase assay was used to measure ErbB2 and Flt-4 activity. Donor beads coated with streptavidin and acceptor beads coated with PY100 anti-phosphotyrosine antibody (Perkin-Elmer) were used. Biotinylated poly(Glu,Tyr) 4:1 was used as the substrate. Substrate phosphorylation was measured by luminescence following donor-acceptor bead addition followed by complex formation. Test compound, 3 μmol/L ATP, 3 nmol/L biotinylated poly(Glu,Tyr) 4:1, and 1 nmol/L ErbB2 (residues Q679-V1255 of human ErbB2, Proqinase) or Flt-4 (residues D725-R1298 of human Flt-4, Proqinase) were combined in a volume of 20 μL Assay Buffer (20 mM TrisHCl, pH 7.5, 10 mM MgCl2, 3 mM MnCl2, 1 mM DTT, 0.01% Triton) in a 384-well white, medium-binding microtiter plate (Greiner). Reaction mixtures were incubated for 1 h at room temperature. Reactions were quenched by addition of 10 μL of 15 to 30 μg/mL AlphaScreen bead suspension containing 75 mmol/L HEPES (pH 7.4), 300 mmol/L NaCl, 120 mmol/L EDTA, 0.3% bovine serum albumin, and 0.03% Tween 20. After 2 to 16 h of incubation at room temperature, plates were read using an AlphaQuest reader (Perkin-Elmer).\nFurther screening was performed using the biochemical assay methods of Example 2. Additional description of the components and concentrations are summarized in Table 8, Table 9, and Table 10, below."}, "[1]": {"target": "T1, Monoamine Oxidase A, Peripheral (Rattus norvegicus, UniProt P21396)", "T1 construct": "NovaScreen", "assay": "NovaScreen assay", "type": "biochemical", "settings": "read-out: Inhibition, 10 μM XL-647"}, "EphA2": {"target": "T2, EphA2 (Homo sapiens, UniProt P29317)", "T2 construct": "Human, N598-; mM MgCl2, 3 mM MnCl2,; R890, N-His6; His6 (N)", "T2 sequence (P29317 598-890)": "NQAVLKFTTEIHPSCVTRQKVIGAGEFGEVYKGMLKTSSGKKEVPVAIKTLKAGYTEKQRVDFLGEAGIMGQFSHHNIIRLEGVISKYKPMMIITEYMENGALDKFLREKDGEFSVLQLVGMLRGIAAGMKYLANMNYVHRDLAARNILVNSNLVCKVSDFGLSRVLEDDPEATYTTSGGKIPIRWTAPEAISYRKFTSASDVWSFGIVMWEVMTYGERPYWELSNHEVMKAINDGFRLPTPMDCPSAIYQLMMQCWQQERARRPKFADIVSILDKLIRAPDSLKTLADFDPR", "assay": "Chemiluminescent kinase assay", "type": "biochemical"}, "[2]": {"target": "T3, EGFR phosphorylation (H1975 cells) (Homo sapiens, UniProt P00533, L858R/T790M)", "T3 construct": "host or cells: H1975 (cultured cells; s.c. xenografts in mice)", "assay": "Immunoblot analysis of H1975 cell lysates", "type": "cell-based", "procedure": "For the H1975 immunoblot studies, 3×10^5 cells were plated in each well (12-well plate) and incubated for 16 h in complete RPMI 1640, rinsed with fetal bovine serum-free RPMI 1640, and incubated with serial dilutions of test compounds in fetal bovine serum-free medium for 2 h followed by stimulation with 100 ng/mL human recombinant EGF for 10 min. Whole-cell protein lysates were prepared as described above and centrifuged for 10 min at 13,000×g at 4° C. to remove any insoluble material. Total protein was determined using bicinchoninic acid reagent and an equal amount of protein was combined with LDS loading buffer (Invitrogen) according to the manufacturer's instructions. Proteins were separated by gel electrophoresis on 4% to 15% polyacrylamide gels, transferred to nitrocellulose membranes, and detected by immunoblotting. Antibody:antigen complexes were detected using chemiluminescence. The following antibodies from Cell Signaling Technology were used at a 1:1,000 dilution: anti-EGFR, anti-pEGFR^Tyr1068, anti-AKT, anti-pAKT^Ser473, anti-ERK, and anti-pERK^Thr202/Tyr204. The anti-β-actin primary antibody (Accurate Chemical and Scientific) was used at 1:10,000 and the horseradish peroxidase-coupled secondary antibodies were purchased from Jackson ImmunoResearch and used at 1:5,000."}, "total HER2/ErbB2": {"target": "T4, total HER2/ErbB2 (Homo sapiens, UniProt P04626)", "T4 construct": "endogenous in cells; host or cells: BT474 tumour xenografts in mice (per the earlier reading)", "T4 sequence (P04626 23-1255)": "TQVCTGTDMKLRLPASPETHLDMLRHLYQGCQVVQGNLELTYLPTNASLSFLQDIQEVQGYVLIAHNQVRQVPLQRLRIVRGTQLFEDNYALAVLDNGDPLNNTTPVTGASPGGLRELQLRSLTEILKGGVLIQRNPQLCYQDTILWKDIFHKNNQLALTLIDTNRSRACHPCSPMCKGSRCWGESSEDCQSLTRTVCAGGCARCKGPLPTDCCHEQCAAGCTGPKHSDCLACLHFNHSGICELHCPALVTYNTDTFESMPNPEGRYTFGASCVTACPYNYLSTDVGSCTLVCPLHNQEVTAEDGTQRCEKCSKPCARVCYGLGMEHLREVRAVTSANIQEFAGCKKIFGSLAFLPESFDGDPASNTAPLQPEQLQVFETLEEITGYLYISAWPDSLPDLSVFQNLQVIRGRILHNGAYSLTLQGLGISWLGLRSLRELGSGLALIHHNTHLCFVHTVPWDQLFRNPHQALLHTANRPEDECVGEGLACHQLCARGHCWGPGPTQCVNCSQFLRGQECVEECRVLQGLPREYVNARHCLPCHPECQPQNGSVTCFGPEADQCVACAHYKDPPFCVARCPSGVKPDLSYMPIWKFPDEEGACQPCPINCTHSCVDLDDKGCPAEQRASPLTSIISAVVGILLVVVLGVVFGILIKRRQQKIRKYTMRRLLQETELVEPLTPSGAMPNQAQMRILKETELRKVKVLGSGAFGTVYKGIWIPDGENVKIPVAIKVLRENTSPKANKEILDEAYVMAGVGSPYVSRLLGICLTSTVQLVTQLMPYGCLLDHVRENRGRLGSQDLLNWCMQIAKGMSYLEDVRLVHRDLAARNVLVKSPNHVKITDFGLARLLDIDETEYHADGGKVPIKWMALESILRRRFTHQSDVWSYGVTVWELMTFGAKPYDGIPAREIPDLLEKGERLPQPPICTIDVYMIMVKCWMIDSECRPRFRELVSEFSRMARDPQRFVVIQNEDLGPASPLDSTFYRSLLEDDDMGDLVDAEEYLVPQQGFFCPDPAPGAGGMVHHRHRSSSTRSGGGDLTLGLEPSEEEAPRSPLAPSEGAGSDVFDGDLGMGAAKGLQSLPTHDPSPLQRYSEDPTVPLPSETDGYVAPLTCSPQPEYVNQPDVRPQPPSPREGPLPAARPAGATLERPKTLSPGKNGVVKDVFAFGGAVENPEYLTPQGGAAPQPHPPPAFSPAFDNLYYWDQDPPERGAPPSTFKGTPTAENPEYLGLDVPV", "assay": "In vivo receptor level, BT474 xenografts", "parameters": "species or system mouse"}, "Angiotensin II, AT2": {"target": "T5, Angiotensin II, AT2 (Homo sapiens, UniProt P50052)", "T5 construct": "NovaScreen", "assay": "NovaScreen assay", "type": "binding", "settings": "read-out: Inhibition, 10 μM XL-647"}, "Melatonin, Non-selective": {"system": "Melatonin, Non-selective", "assay": "NovaScreen assay", "type": "binding"}, "Flt-4": {"target": "Flt-4 (Homo sapiens, UniProt P35916)", "sequence (P35916 25-1363)": "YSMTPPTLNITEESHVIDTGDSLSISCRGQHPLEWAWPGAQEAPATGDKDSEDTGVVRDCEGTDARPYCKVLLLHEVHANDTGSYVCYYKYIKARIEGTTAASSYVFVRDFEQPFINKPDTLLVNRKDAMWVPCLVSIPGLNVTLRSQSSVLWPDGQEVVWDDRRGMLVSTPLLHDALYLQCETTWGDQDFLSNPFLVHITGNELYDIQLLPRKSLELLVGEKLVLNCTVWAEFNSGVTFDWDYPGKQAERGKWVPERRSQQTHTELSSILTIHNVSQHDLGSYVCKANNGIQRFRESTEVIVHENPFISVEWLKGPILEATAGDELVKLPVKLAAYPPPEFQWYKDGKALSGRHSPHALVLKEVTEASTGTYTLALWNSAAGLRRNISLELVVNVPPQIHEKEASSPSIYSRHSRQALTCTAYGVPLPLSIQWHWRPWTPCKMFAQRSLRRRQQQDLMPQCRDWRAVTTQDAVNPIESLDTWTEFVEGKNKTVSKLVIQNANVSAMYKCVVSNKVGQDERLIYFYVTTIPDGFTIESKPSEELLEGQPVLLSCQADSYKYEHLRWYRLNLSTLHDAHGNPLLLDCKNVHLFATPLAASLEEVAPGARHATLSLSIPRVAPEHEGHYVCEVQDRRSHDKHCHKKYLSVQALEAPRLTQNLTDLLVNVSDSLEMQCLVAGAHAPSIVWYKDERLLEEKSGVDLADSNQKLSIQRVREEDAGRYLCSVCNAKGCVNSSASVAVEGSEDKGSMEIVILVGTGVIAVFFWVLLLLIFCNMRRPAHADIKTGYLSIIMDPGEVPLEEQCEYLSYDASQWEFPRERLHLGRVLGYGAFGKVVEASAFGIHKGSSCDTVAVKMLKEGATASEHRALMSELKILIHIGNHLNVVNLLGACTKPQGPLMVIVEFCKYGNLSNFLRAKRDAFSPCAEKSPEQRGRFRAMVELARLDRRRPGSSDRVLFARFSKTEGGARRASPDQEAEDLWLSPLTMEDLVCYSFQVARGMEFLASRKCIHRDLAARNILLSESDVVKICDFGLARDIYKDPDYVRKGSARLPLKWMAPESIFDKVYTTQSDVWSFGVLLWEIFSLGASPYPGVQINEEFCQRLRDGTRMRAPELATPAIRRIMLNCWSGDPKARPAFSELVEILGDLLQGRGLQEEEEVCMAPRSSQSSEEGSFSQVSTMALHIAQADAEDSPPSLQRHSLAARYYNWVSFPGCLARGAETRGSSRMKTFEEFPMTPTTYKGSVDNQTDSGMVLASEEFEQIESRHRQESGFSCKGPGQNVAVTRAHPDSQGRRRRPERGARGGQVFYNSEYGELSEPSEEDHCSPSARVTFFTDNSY", "assay": "Flt-4 autophosphorylation ELISA, transfected COS cells", "type": "cell-based", "parameters": "expressed in transfected cells; host or cells: COS cells", "settings": "read-out: Cellular IC50, autophosphorylation", "procedure": "The Flt-4 autophosphorylation ELISA utilized COS cells. Cells were seeded at 200,000 cells per well in 6-well plates in DMEM with 10% FBS and grown at 5% CO2 and 37° C. After 24 h growth, cells were transfected with 1 μg/well Flt-4 cDNA, using 3 μl FuGENE-6 (Roche). […] The cell monolayer was washed twice with cold PBS and harvested by scraping into 150 μl ice-cold lysis buffer. Cell lysates were centrifuged at 13,000 g for 15 min, diluted 1:10 in ice-cold PBS, and transferred to clear Streptavidin plates (Pierce) coated with anti-human […] (Flt-4) biotinylated goat IgG (2 μg/well, R&D Biosciences). After washing, anti-Flag M2 mouse IgG-HRP (Sigma 1 to 10,000 dilution) or anti phospho-tyrosine rabbit IgG-HRP (Zymed, 61-5820, 1:10,000) was used to detect total Flt-4 and phosphorylated Flt-4."}, "[3]": {"target": "T6, Choline Acetyltransferase (Homo sapiens, UniProt P28329)", "T6 construct": "NovaScreen", "assay": "NovaScreen assay", "type": "biochemical", "settings": "read-out: Inhibition, 10 μM XL-647"}, "EGFR L858R (pCMV/Lx-1)": {"target": "EGFR L858R (pCMV/Lx-1) (Homo sapiens, UniProt P00533, L858R)", "assay": "EGFR phosphorylation ELISA in transfected Lx-1 cells"}, "BALB/C mice": {"system": "BALB/C mice", "settings": "mouse, in vivo"}, "EGFR WT (pTet-On/Lx-1)": {"target": "EGFR WT (pTet-On/Lx-1) (Homo sapiens, UniProt P00533)", "assay": "EGFR phosphorylation ELISA in transfected Lx-1 cells"}}, "note": "Read-outs that look alike come from different tables or passages of the source.", "data": [{"smiles": "COc1cc2c(Nc3ccc(Cl)c(Cl)c3F)ncnc2cc1OC[C@@H]1C[C@@H]2CN(C)C[C@@H]2C1", "note": "[XL-647, N-(3,4-dichloro-2-fluorophenyl)-7-({[(3aR,5r,6aS)-2-methyloctahydrocyclopenta[c]pyrrol-5-yl]methyl}oxy)-6-(methyloxy)quinazolin-4-amine]", "values": [{"measurement": "IC50", "setting": "c-Kit", "value": "132 ± 8.2", "unit": "nM"}, {"measurement": "inhibition at 10 µM", "setting": "[1]", "value": 1.66, "unit": "%"}, {"measurement": "IC50", "setting": "EphA2", "value": "6.8 ± 0.8", "unit": "nM"}, {"measurement": "phosphorylation of EGFR, immunoblot", "setting": "[2]", "value": "inhibits phosphorylation of EGFR"}, {"measurement": "Single Dose Duration of Action (100 mg/kg, >50% inhibition)", "setting": "total HER2/ErbB2", "value": ">96", "unit": "h"}, {"measurement": "inhibition at 10 µM", "setting": "Angiotensin II, AT2", "value": 16.6, "unit": "%"}, {"measurement": "Inhibition, 10 μM XL-647", "setting": "Melatonin, Non-selective", "value": 0.18, "unit": "%"}, {"measurement": "IC50", "setting": "Flt-4", "value": 90, "unit": "nM"}, {"measurement": "inhibition at 10 µM", "setting": "[3]", "value": 1.27, "unit": "%"}, {"measurement": "IC50", "setting": "EGFR L858R (pCMV/Lx-1)", "value": 5, "unit": "nM"}, {"measurement": "BUN", "setting": "BALB/C mice; 7.5 mg/kg/day", "value": 19.00, "unit": "mg/dL"}, {"measurement": "CT-CI", "setting": "BALB/C mice; 7.5 mg/kg/day", "value": 0}, {"measurement": "Creatinine", "setting": "BALB/C mice; 7.5 mg/kg/day", "value": 0.24, "unit": "mg/dL"}, {"measurement": "MUCA", "setting": "BALB/C mice; 7.5 mg/kg/day", "value": 1029, "unit": "mOsmol"}, {"measurement": "BUN", "setting": "BALB/C mice; 15 mg/kg/day", "value": 19.29, "unit": "mg/dL"}, {"measurement": "CT-CI", "setting": "BALB/C mice; 15 mg/kg/day", "value": 0}, {"measurement": "Creatinine", "setting": "BALB/C mice; 15 mg/kg/day", "value": 0.29, "unit": "mg/dL"}, {"measurement": "MUCA", "setting": "BALB/C mice; 15 mg/kg/day", "value": 1029, "unit": "mOsmol"}, {"measurement": "IC50", "setting": "EGFR WT (pTet-On/Lx-1)", "value": 5, "unit": "nM"}]}]}
